Tested on: HepG2
Test: Cytotoxicity against Homo sapiens (human) HepG2 cells after 3 days by MTT assay
Format: functional, cell-based
Settings: HepG2, 72 h

Row | Structure (SMILES) | IC50 [µM]
1 | COc1cc2c(OCCCCBr)c3c(c(-c4ccc5c(c4)OCO5)c2cc1OC)C(=O)OC3 | 155
2 | CCOc1c2c(c(-c3ccc4c(c3)OCO4)c3cc(OC)c(OC)cc13)C(=O)OC2 | 141
3 | CCCOc1c2c(c(-c3ccc4c(c3)OCO4)c3cc(OC)c(OC)cc13)C(=O)OC2 | 152
4 | COc1cc2c(OC)c3c(c(-c4ccc5c(c4)OCO5)c2cc1OC)C(=O)OC3 [JUSTICIDIN A] | 163
5 | COc1cc2c(O)c3c(c(-c4ccc5c(c4)OCO5)c2cc1OC)C(=O)OC3 [DIPHYLLIN] | > 500
6 | COc1cc2c(OCCCCCBr)c3c(c(-c4ccc5c(c4)OCO5)c2cc1OC)C(=O)OC3 | 207
7 | COc1cc2c(OCCCBr)c3c(c(-c4ccc5c(c4)OCO5)c2cc1OC)C(=O)OC3 | 161
8 | COc1cc2c(OCCCCCCBr)c3c(c(-c4ccc5c(c4)OCO5)c2cc1OC)C(=O)OC3 | 167
9 | CCCCCOc1c2c(c(-c3ccc4c(c3)OCO4)c3cc(OC)c(OC)cc13)C(=O)OC2 | 291
10 | CCCCOc1c2c(c(-c3ccc4c(c3)OCO4)c3cc(OC)c(OC)cc13)C(=O)OC2 | 127
11 | COc1cc([C@@H]2c3cc4c(cc3[C@@H](O[C@@H]3O[C@@H]5CO[C@@H](C)O[C@H]5[C@H](O)[C@H]3O)[C@H]3COC(=O)[C@H]23)OCO4)cc(OC)c1O [ETOPOSIDE] | 427
12 | COc1cc2c(OCCBr)c3c(c(-c4ccc5c(c4)OCO5)c2cc1OC)C(=O)OC3 | 263

— ChEMBL document CHEMBL3046333, “Synthesis and bioevaluation of novel analogues of justicidin A” (Med Chem Res, 2010)
